Test results as given in US20250302948A1, “DR5 Agonist and IAP Antagonist Combination Therapy” (Inhibrx Biosciences, Inc., priority 2022, published 2025).

What was measured:
[1] = test system: SW620; experiment: CellTiter-Glo cell viability, 48 h (Examples 1, 2); assay type: cell-based; settings: Homo sapiens, SW-620
Text: (§1) Test Article Preparation for INBRX-109.
(§2) Day 2—Test and Control Article Addition.
(§3) Day 4—Viability Measurements. […] Data was graphed in GraphPad Prism 7.

[2] = test system: HT-29; experiment: CellTiter-Glo cell viability, 48 h (Example 1); assay type: cell-based; settings: Homo sapiens
Text: as §1, §2, §3

[3] = test system: LS411N; experiment: CellTiter-Glo cell viability, 48 h (Example 1); assay type: cell-based; settings: Homo sapiens, LS-411N
Text: as §1, §2, §3

[4] = test system: LOVO; experiment: CellTiter-Glo cell viability, 48 h (Example 1); assay type: cell-based; settings: Homo sapiens
Text: as §1, §2, §3

[5] = test system: SNU-C2B; experiment: CellTiter-Glo cell viability, 48 h (Example 1); assay type: cell-based; settings: Homo sapiens
Text: as §1, §2, §3

[6] = test system: SNU-1; experiment: Cytotoxicity on gastric cancer cell lines, assay similar to Example 1 (Example 4); settings: Homo sapiens, SNU1
Protocol: (§6) Day 1-Cell Seeding. Monolayer cultures of each cell line were harvested for compound screening as detailed below. Culture medium was aspirated, and the cells were washed once with PBS. Accutase was added and flasks were incubated at 37° C. until cells became detached. An equal volume of complete medium was added to quench the Accutase, and the cells were then pipetted up and down several times to generate a homogenous single cell suspension. The density and viability of cells was determined by Trypan Blue using a TC20 Automated Cell Counter. Experimental cells were resuspended to a concentration of 0.17×10^6/mL in EMEM/10% FBS/Anti-Anti media (complete EMEM) and seeded in the inner wells of 384-well luminescence plates at 15 μL/well (2,500/well final). Each cell line was plated in duplicate on separate plates. […]
(§7) Day 4—Viability Measurements. […] Any visible bubbles were removed with 100% ethanol vapor, then luminescence (RLU) was read on the Spectra Max M5e plate reader, using the 384-well opaque plate setting and SoftMaxPro v5.4 software with an integration time of 50 milliseconds. To determine the effect of test articles on cell viability, raw RLU values were exported to Excel and percent survival was calculated as a percentage of vehicle control (0.2% DMSO in EMEM), where the vehicle control is set at 100%.

[7] = test system: Panc-1; experiment: Cytotoxicity on pancreatic cancer cell lines, assay similar to Example 1 (Example 4); settings: Homo sapiens
Protocol: as §6, §7

[8] = test system: NCI-N87; experiment: Cytotoxicity on gastric cancer cell lines, assay similar to Example 1 (Example 4); settings: Homo sapiens
Protocol: as §6, §7

[9] = test system: NCI-H460; experiment: Cytotoxicity on lung cancer cell lines, assay similar to Example 1 (Example 4); settings: Homo sapiens
Protocol: as §6
(§8) Day 4—Viability Measurements. […] Any visible bubbles were removed with 100% ethanol vapor, then luminescence (RLU) was read on the Spectra Max M5e plate reader, using the 384-well opaque plate setting and SoftMaxPro v5.4 software with an integration time of 50 milliseconds. To determine the effect of test articles on cell viability, raw RLU values were exported to Excel and percent survival was calculated as a percentage of vehicle control (0.2% DMSO in EMEM), where the vehicle control is set at 100%. […]

[10] = test system: NCI-H23; experiment: as above; settings: Homo sapiens
Protocol: as §6, §8

[11] = test system: AsPC-1; experiment: Cytotoxicity on pancreatic cancer cell lines, assay similar to Example 1 (Example 4); settings: Homo sapiens, ASPC1
Protocol: as §6, §7

[12] = test system: A549; experiment: Cytotoxicity on lung cancer cell lines, assay similar to Example 1 (Example 4); settings: Homo sapiens
Protocol: as §6, §8

[13] = test system: MIA-PaCa-2; experiment: Cytotoxicity on pancreatic cancer cell lines, assay similar to Example 1 (Example 4); settings: Homo sapiens
Protocol: as §6, §8

[14] = test system: KYSE-150; experiment: CellTiter-Glo cell viability, T48 (Example 3); assay type: cell-based
Text: (§4) Day 2—Compound Treatment.
(§5) Day 4—Viability Measurements.

[15] = test system: SCC-15; experiment: CellTiter-Glo cell viability, T48 (Example 3); assay type: cell-based
Text: as §4, §5

[16] = test system: TE-1; experiment: CellTiter-Glo cell viability, T48 (Example 3); assay type: cell-based
Text: as §4, §5

[17] = test system: RPMI-2650; experiment: CellTiter-Glo cell viability, T48 (Example 3); assay type: cell-based
Text: as §4, §5

[18] = test system: SW579; experiment: CellTiter-Glo cell viability, T48 (Example 3); assay type: cell-based
Text: as §4, §5

[19] = test system: SCC-9; experiment: CellTiter-Glo cell viability, T48 (Example 3); assay type: cell-based
Text: as §4, §5

[20] = test system: KYSE-270; experiment: CellTiter-Glo cell viability, T48 (Example 3); assay type: cell-based
Text: as §4, §5

[21] = test system: Detroit 562; experiment: CellTiter-Glo cell viability, T48 (Example 3); assay type: cell-based
Text: as §4, §5

[22] = test system: OSC-19; experiment: CellTiter-Glo cell viability, T48 (Example 3); assay type: cell-based
Text: as §4, §5

[23] = test system: T.Tn; experiment: CellTiter-Glo cell viability, T48 (Example 3); assay type: cell-based
Text: as §4, §5

[24] = test system: FADU; experiment: CellTiter-Glo cell viability, T48 (Example 3); assay type: cell-based
Text: as §4, §5

[25] = test system: KYSE-410; experiment: CellTiter-Glo cell viability, T48 (Example 3); assay type: cell-based
Text: as §4, §5

[26] = test system: SCC-4; experiment: CellTiter-Glo cell viability, T48 (Example 3); assay type: cell-based
Text: as §4, §5

[27] = test system: A253; experiment: CellTiter-Glo cell viability, T48 (Example 3); assay type: cell-based
Text: as §4, §5

[28] = test system: CAL-27; experiment: CellTiter-Glo cell viability, T48 (Example 3); assay type: cell-based
Text: as §4, §5

[29] = test system: COLO-680N; experiment: CellTiter-Glo cell viability, T48 (Example 3); assay type: cell-based
Text: as §4, §5

[30] = test system: KYSE-70; experiment: CellTiter-Glo cell viability, T48 (Example 3); assay type: cell-based
Text: as §4, §5

[31] = test system: SCC-25; experiment: CellTiter-Glo cell viability, T48 (Example 3); assay type: cell-based
Text: as §4, §5

[32] = test system: SNU-5; experiment: Cytotoxicity on gastric cancer cell lines, assay similar to Example 1 (Example 4); settings: Homo sapiens
Protocol: as §6, §7

[33] = test system: HCC2935; experiment: Cytotoxicity on lung cancer cell lines, assay similar to Example 1 (Example 4); settings: Homo sapiens
Protocol: as §6, §8

[34] = test system: NCI-H2452; experiment: as above; settings: Homo sapiens
Protocol: as §6, §8

[35] = test system: SW1990; experiment: Cytotoxicity on pancreatic cancer cell lines, assay similar to Example 1 (Example 4); settings: Homo sapiens
Protocol: as §6, §8

[36] = test system: LS174T; experiment: CellTiter-Glo cell viability, 48 h (Examples 1, 2); assay type: cell-based; settings: Homo sapiens, LCL-161 5 uM alone
Text: as §1, §2, §3

[37] = Homo sapiens, Debio-1143 4.5 μM alone
[38] = LCL-161 5 uM alone, read-out: % cytotoxicity

C[C@@H]1CN(CC(=O)N2CC(C)(C)c3nc(CO)c(Cc4ccc(F)cc4)cc32)[C@@H](CN2CCOC[C@H]2C)CN1 [ASTX660, tolinapant] gave a cytotoxicity at 0.9 µM ([1]; SW620, ASTX660 900 nM alone) of 2.6%, a cytotoxicity at 0.9 µM ([2]; ASTX660 900 nM alone) of 0.3% and a cytotoxicity at 0.9 µM ([3]; LS411N, ASTX660 900 nM alone) of 5.9%. The cytotoxicity at 0.9 µM ([4]; ASTX660 900 nM alone) was 6.5% and the cytotoxicity at 0.9 µM ([5]; ASTX660 900 nM alone) was 31.1%.

CN[C@@H](C)C(=O)N[C@H](C(=O)N1CCC[C@H]1C(=O)N[C@H]1c2ccccc2C[C@H]1OCC#CC#CCO[C@@H]1Cc2ccccc2[C@@H]1NC(=O)[C@@H]1CCCN1C(=O)[C@@H](NC(=O)[C@H](C)NC)C1CCCCC1)C1CCCCC1 [AZD5582] showed a cytotoxicity at 0.45 µM ([1]; SW620, AZD5582 450 nM alone) of 4.1%, a cytotoxicity at 0.45 µM ([2]; AZD5582 450 nM alone) of 23.4% and a cytotoxicity at 0.45 µM ([3]; LS411N, AZD5582 450 nM alone) of 12.7%. The cytotoxicity at 0.45 µM ([4]; AZD5582 450 nM alone) was 28.2% and the cytotoxicity at 0.45 µM ([5]; AZD5582 450 nM alone) was 75.3%.

CN[C@@H](C)C(=O)N[C@H]1CN(C(=O)CC(C)C)CC[C@H]2CC[C@@H](C(=O)NC(c3ccccc3)c3ccccc3)N2C1=O [Debio-1143, xevinapant] was tested, and the cytotoxicity at 2 µM [6] was 6.83%, the cytotoxicity at 2 µM [7] was 13.6% and the cytotoxicity at 2 µM [8] was 7.01%. It also gave a cytotoxicity at 2 µM [9] of 3.43%, a cytotoxicity at 2 µM [10] of 10.8% and a cytotoxicity at 2 µM [11] of 2.71%. For the same molecule, the cytotoxicity at 2 µM [12] was 9.61%, the cytotoxicity at 2 µM [13] was 7.37% and the cytotoxicity at 4.5 µM [14, 37] was -13.7%. It also gave a cytotoxicity at 4.5 µM [15, 37] of 0.9%, a cytotoxicity at 4.5 µM [16, 37] of -6% and a cytotoxicity at 4.5 µM [17, 37] of 5.6%. It also gave a cytotoxicity at 4.5 µM ([18]; Debio-1143 4.5 μM alone) of 7.7%, a cytotoxicity at 4.5 µM [19, 37] of 2.3% and a cytotoxicity at 4.5 µM [20, 37] of 8.2%. For the same molecule, the cytotoxicity at 4.5 µM [21, 37] was 9%, the cytotoxicity at 4.5 µM ([22]; OSC19, Debio-1143 4.5 μM alone) was -7.1% and the cytotoxicity at 4.5 µM ([23]; Debio-1143 4.5 μM alone) was 4.4%. It also gave a cytotoxicity at 4.5 µM [24, 37] of -3.7%, a cytotoxicity at 4.5 µM [25, 37] of -3.3% and a cytotoxicity at 4.5 µM [26, 37] of 0.7%. The cytotoxicity at 4.5 µM [27, 37] was 3.2%, the cytotoxicity at 4.5 µM [28, 37] was 7.2% and the cytotoxicity at 4.5 µM [29, 37] was 3.4%. The cytotoxicity at 4.5 µM [30, 37] was -6.7%, the cytotoxicity at 4.5 µM [31, 37] was 0.6% and the cytotoxicity at 2 µM [32] was 31.5%. The cytotoxicity at 4.5 µM [1] was 5.5%, the cytotoxicity at 4.5 µM [3] was 0.4% and the cytotoxicity at 4.5 µM [5] was 44.8%. The cytotoxicity at 2 µM [33] was 4.95%, the cytotoxicity at 2 µM [34] was 2.82% and the cytotoxicity at 2 µM [35] was 2.23%.

With CN[C@@H](C)C(=O)N[C@H](C(=O)N1CCC[C@H]1c1nc(C(=O)c2ccc(F)cc2)cs1)C1CCCCC1 [LCL-161] the cytotoxicity at 5 µM [36] was 9%, the cytotoxicity at 5 µM ([1]; SW620, LCL-161 5 uM alone, read-out: % cytotoxicity) was 4.7% and the cytotoxicity at 5 µM [2, 38] was 6.2%. It also gave a cytotoxicity at 5 µM ([3]; LS411N, LCL-161 5 uM alone, read-out: % cytotoxicity) of 10.5% and a cytotoxicity at 5 µM [5, 38] of 72.9%.

B1: INBRX-109: DR5-binding polypeptide consisting of SEQ ID NO: 7, or SEQ ID NO: 7 lacking the terminal lysine; tetravalent DR5 agonist (protein)
chain: EVQLLESGGGEVQPGGSLRLSCAASGLTFPNYGMGWFRQAPGKEREFVSAIYWSGGTVYYAESVKGRFTISRDNAKNTLYLQMSSLRAEDTAVYYCAVTIRGAATQTWKYDYWGQGTLVTVKPGGSGGSEVQLLESGGGEVQPGGSLRLSCAASGLTFPNYGMGWFRQAPGKEREFVSAIYWSGGTVYYAESVKGRFTISRDNAKNTLYLQMSSLRAEDTAVYYCAVTIRGAATQTWKYDYWGQGTLVTVKPGGGGDKTHTCPPCPAPGGPSVFLFPPKPKDTLMISRTPEVTCVVVDVSHEDPEVKFNWYVDGVEVHNAKTKPREEQYNSTYRVVSVLTVLHQDWLNGKEYKCKVSNKALPAPIEKTISKAKGQPREPQVYTLPPSRDELTKNQVSLTCLVKGFYPSDIAVEWESNGQPENNYKTTPPVLDSDGSFFLYSKLTVDKSRWQQGNVFSCSVMHEALHNHYTQKSLSLSPGK
modifications: Synthetic: INBRX-109
notes: tetravalent DR5 agonist
B1 was tested, and the “% cytotoxicity” value ([14]; INBRX-109 1 nM alone) was −0.3%, the “% cytotoxicity” value ([15]; INBRX-109 1 nM alone) was 7.3% and the “% cytotoxicity” value ([16]; INBRX-109 1 nM alone) was 38.4%. For the same molecule, the “% cytotoxicity” value ([17]; INBRX-109 1 nM alone) was 2.9%, the “% cytotoxicity” value ([18]; INBRX-109 1 nM alone) was 101.7% and the “% cytotoxicity” value ([19]; INBRX-109 1 nM alone) was 19.4%. The “% cytotoxicity” value ([20]; INBRX-109 1 nM alone) was 7.3%, the “% cytotoxicity” value ([21]; INBRX-109 1 nM alone) was 42.9% and the “% cytotoxicity” value ([22]; INBRX-109 1 nM alone) was 100.9%. The “% cytotoxicity” value ([23]; INBRX-109 1 nM alone) was 42.9%, the “% cytotoxicity” value ([24]; INBRX-109 1 nM alone) was 6.1% and the “% cytotoxicity” value ([25]; INBRX-109 1 nM alone) was 2.6%. The “% cytotoxicity” value ([26]; INBRX-109 1 nM alone) was 8.5%, the “% cytotoxicity” value ([27]; INBRX-109 1 nM alone) was 50.9% and the “% cytotoxicity” value ([28]; INBRX-109 1 nM alone) was 13.7%. The “% cytotoxicity” value ([29]; INBRX-109 1 nM alone) was 9.6%, the “% cytotoxicity” value ([30]; INBRX-109 1 nM alone) was 22.3% and the “% cytotoxicity” value ([31]; INBRX-109 1 nM alone) was 7.9%.
